Experimental data published in US20220110916A1, “Antioxidant and Use Thereof” (Bioradical Research Institute Corp., priority 2019, published 2022).

Tests used:
[1] = Water solubility noted at synthesis; type: physicochemical; conditions: crystal obtained in Example 1
Method: 3.58 g of 3-methyl-1-phenyl-5-pyrazolone (hereinafter, also referred to as “edaravone”), 2.59 g of malonaldehyde dianilide hydrochloride, and 20 ml of ethanol were added to a reactor and dissolved. To the obtained solution, 2.04 g of triethylamine and 0.4 ml of water were added and stirred for 1 hour at room temperature (about 25° C., hereinafter, the same applies). After the stirring, the resultant was further reacted for 1 hour at 50° C. After discharging the obtained reaction solution to 100 ml of 1N hydrochloric acid, the mixture was sufficiently stirred and the precipitate was filtered. The resulting cake was washed with water. The cake was added to 200 ml of an aqueous sodium hydroxide solution having a 1% by weight concentration and completely dissolved by heating with stirring. Next, the dissolved solution was stirred for 3 hours after cooling to room temperature. Then, the liquid containing the obtained precipitate was filtered, and then the cake was washed with water. […] Note that the melting point of ED2AP was 249° C., which was water-soluble.
3 ml of dimethylformamide was added to a reactor and the exterior of the reactor was cooled with ice water. 1.75 g of phosphorus oxychloride was slowly dropped into the reactor (Reaction Solution A). In another reactor, 1.78 g of edaravone was dissolved in 5 ml of dimethylformamide (Reaction Solution B). Under room temperature, the reaction solution B was slowly added to the reaction solution A, and the resulting mixture was allowed to react for 1 hour with the end of addition (Reaction Solution C) being a reference. In another reactor, 1.81 g of 3-methyl-1-phenyl-5-pyrazolone was added to 8 ml of chloroform and dissolved (Reaction Solution D). Under room temperature, the reaction solution C was slowly added to the reaction solution D, followed by stirring for 20 minutes and further stirring at 70° C. for 1 hour. To the resultant, 0.2 g of water was added and stirred for another 2 hours. The obtained reaction solution was discharged into 100 ml of water and extracted with a mixed solvent of toluene/ethyl acetate=1/1 (volume ratio). After condensation of the obtained extract, column purification was performed to obtain 2.92 g of yellow crystal of the compound of the formula (10) having the following physical properties.
1.00 g of edaravone, 0.72 g of paraformaldehyde, and 20 ml of formic acid were added to a reaction flask and stirred overnight for 20 hours at 70° C. The obtained reaction solution was discharged into 80 ml of water and extracted with a mixed solvent of toluene/ethyl acetate=1/1 (volume ratio). When the extract was condensed to about two-thirds, crystals were precipitated. Further, the resultant was cooled to room temperature, and sufficiently crystallized, and then filtered. The obtained cake was washed with toluene to obtain 0.88 g of pale yellow crystal of the compound of the formula (14) having the following physical properties.
In Example 1(1), synthesis was performed in the same manner as described above except that 3-methyl-1-ethyl-5-pyrazolone was used instead of edaravone to obtain red crystal of BisEp-C3 having the following physical properties. Note that BisEp-C3 was water-soluble.
In Example 1(2), synthesis was performed in the same manner as described above except that 3-methyl-1-ethyl-5-pyrazolone was used instead of edaravone to obtain yellow crystal of BisEp-C1 having the following physical properties. Note that BisEp-C1 was water-soluble.
In Example 1(3), synthesis was performed in the same manner as described above except that 3-methyl-1-ethyl-5-pyrazolone was used instead of edaravone, then the obtained reaction solution was condensed, and the resultant was subjected to column purification to obtain colorless crystal of BisEp-C1 (H2) having the following physical properties. Note that BisEp-C1 (H2) was water-soluble.

[2] = system: neutrophils isolated from the peripheral blood of healthy individuals; assay: Superoxide production amount of PMA-stimulated neutrophils, CLA chemiluminescence; type: cell-based, human; conditions: 0-200 μmol/l or 0-5000 μmol/l; PMA 100 ng/ml; control being 100; FIG. 2
Method: For examining the reactive oxygen-eliminating effect of the antioxidant of the present invention, the superoxide produced by the neutrophils when the neutrophils isolated from the peripheral blood of healthy individuals were stimulated with PMA (phorbor-12-myristate-13-acetate) was used. The superoxide production amount was measured by chemiluminescence using CLA (2-methyl-6-pjenyl-3, 7-dihydroimidazo[1,2-a]pyrazine-3-one).
(§1) First, ED2AP, BisEp-C3, edaravone, BisEp-C1, or BisEp-C1 (H2) was added to a neutrophil of 4×10^5 cells per sample so as to achieve a predetermined concentration (0, 12.5, 25, 50, 100, or 200 μmol/l, or 0, 125, 250, 500, 1250, 2500, or 5000 μmol/l) with 5 μmol of CLA, and then the cell suspension was seeded in flat-bottomed 96-well plates. The volume of the suspension was 200 μl/well, and phenol red free Ca+, Mg+ HBSS was used as the solution. In addition, the neutrophil was stimulated by adding PMA so as to achieve a concentration of 100 ng/ml. After the stimulation, a plate reader (Envision 2104 Multilabel Reader, produced by Perkin Elmer Co., Ltd.) was used to measure the chemiluminescence value over time for 30 minutes with the PMA stimulation time being a reference. The measurement interval was 30 seconds. The sum of the chemiluminescence values obtained every 30 seconds for 30 minutes was taken as the superoxide production amount. In addition, as a control, the superoxide production amount was measured in the same manner except that each compound was not added. The relative value of the superoxide production amount when each compound was added was calculated with the superoxide production amount of the control being 100.

[3] = Storage stability in pH7.4-PBS or pure water at 37° C. protected from light, residual rate by HPLC; type: physicochemical; conditions: 200 μmol/l; for Residual rate (%) After 1 week / Residual rate (%) After 2 weeks: 37° C., protected from light; for Residual rate (%) Initial concentration: initial concentration (reference 100%)
Method: The storage stability of edaravone, EMPO, ED2AP, and BisEp-C3 of the following formula (A) were examined. Specifically, edaravone, EMPO, ED2AP, and BisEp-C3 were dissolved in pH7.4-PBS or pure water so as to have a final concentration of 200 μmol/l to prepare dissolved solutions of these compounds. When the compounds were difficult to be dissolved, they were dissolved in an ultrasonic cleaner with warm water at 40° C.
Under the measurement conditions for HPLC described below, the initial concentration was quantified, and then each solution was stored in an oven, which was protected from light, at 37° C., and quantified under the same measurement conditions after 1 week and 2 weeks, to determine residual rate (%) with the initial concentration (100%) being a reference.
Measurement conditions for HPLC
PDA detector (Format: SPD-M20A) HPLC Assay Conditions:
Column: Atlantis dC18 5 μm (250×4.6 mm I.D.; produced by Waters)
Column temperature: 45° C.
Detection method: UV (254 nm)
Eluate A: pH3 buffer solution (adjusted to pH3 by adding phosphoric acid to 0.05M KH2PO4 aqueous solution)/methanol=90/10

rat neuroid cells B50 [4] = assay: Alleviation of singlet oxygen (Rose Bengal + G-LED) cytotoxicity, Alamar Blue fluorescence; type: cell-based; conditions: 200 nmol/l RB + G-LED 5 minutes
Method: Edaravone, ED2AP and BisEp-C3 were examined whether they had the function of alleviating neuronopathy. Specifically, singlet oxygen was generated by combining Rose Bengal (RB), which is a sensitizer, with green light (G-LED), and the function of alleviating the cytotoxicity of the generated singlet oxygen was examined with the cellular activity being an indicator.
First, rat neuroid cells B50 were cultured in 12-well dishes at 2×10^5 cells/well (medium: RPMI-1640 medium containing 5% FCS) overnight. After the culturing, the medium of each well was replaced with HBSS (1000 μl/well; phenol red free Ca+, Mg+) containing 200 nmol/l RB and edaravone, ED2AP, or BisEp-C3 having a predetermined concentration (0, 12.5, 25, 50, or 100 μmol/l). The dish was then irradiated with G-LED for 5 minutes to generate singlet oxygen. Thereafter, the medium of each well was replaced with 1000 μl of HBSS and Alamar Blue was added. The dish was then allowed to react for about 2 hours in an incubator at 37° C. and 5% CO2. After the reaction, fluorescence intensity (excitation wavelength: λ-560 nm, fluorescence wavelength: λ-595 nm) was measured with a plate reader (infinite200, Tecan Trading AG). In this experimental system, the higher the cellular activity, the more Alamar Blue is taken up and the higher the fluorescence intensity. As a control, fluorescence intensity was measured in the same manner except that sodium azide (Azide, NaN3) was added instead of the compounds so as to achieve a concentration of 4 mmol/l. As a negative control (NC), fluorescence intensity was measured in the same manner except that RB was not added. The relative value of the fluorescence intensity in the sample to which each compound was added was calculated with the fluorescence intensity of the negative control being 100.

[5] = system: neutrophils isolated from the peripheral blood of healthy individuals; assay: Superoxide production amount of PMA-stimulated neutrophils with PBS solutions stored for 10 days vs immediately after preparation; type: cell-based, human; conditions: PBS solution stored for 10 days vs immediately after preparation; 0, 6.25, 12.5, 25, 50, 100 or 20 μmol/l; FIG. 4
Method: as §1
PBS solutions of ED2AP, BisEp-C3, and edaravone were prepared in the same manner as in Example 2 and stored for 10 days. The superoxide production amount was calculated in the same manner as in Example 4 except that the PBS solution after storage was added instead of ED2AP, BisEp-C3, edaravone, BisEp-C1 or BisEp-C1 (H2) so as to achieve a predetermined concentration (0, 6.25, 12.5, 25, 50, 100 or 20 μmol/l) of ED2AP, BisEp-C3 or edaravone. Further, PBS solutions of ED2AP, BisEp-C3, and edaravone were prepared in the same manner as in Example 2, and the superoxide production amount was calculated in the same manner except that the PBS solution immediately after preparation was used. Then, the relative value of the superoxide production amount of each sample was calculated with the superoxide production amount of the sample of 0 μmol/l being 100.

rat neuroid cells B50 [6] = assay: Toxicity evaluation, cell viability by Alamar Blue after 24 hours; type: cell-based; conditions: 12.5, 25, 50, 100, or 200 μmol/l, FIG. 5
Method: Rat neuroid cells B50 were seeded in 12-well plates and then cultured. Edaravone (RC), ED2AP, or BisEp-C3 was added to each well so as to achieve a predetermined concentration (12.5, 25, 50, 100, or 200 μmol/l), and then incubated for 24 hours at 37° C. and 5% CO2. Cell viability in each well after the culture was measured using Alamar Blue.

rat neuroid cells B50 [7] = assay: Toxicity evaluation on byproducts after reaction with singlet oxygen, cell viability; type: cell-based; conditions: 50, 100, or 200 μmol/l reacted with RB + G-LED 525 nm in cell-free system; FIG. 6
Method: In a cell-free system, the RB was added to media (50% FCS-containing RPMI-1640 media) containing edaravone, ED2AP, and BisEp-C3 having a predetermined concentration (50, 100, or 200 μmol/l) and then irradiated with LED (G-LED) at 525 nm to generate singlet oxygen, whereby reacting each compound with singlet oxygen. The cell viability was measured in the same manner as in Example 7(1), except that the culture solution after the reaction was used as a medium of the neuroid cell B50. As a negative control (NC), the cell viability was measured in the same manner except that each compound and […] were not added in the cell-free system. Further, as a control (RB), the cell viability was measured in the same manner except that each compound was not added and only […] was added in the cell-free system.

CCn1nc(C)c(Cc2c(C)nn(CC)c2O)c1O [BisEp-C1 (H2), 4,4′-methylenebis[1-ethyl-3-methyl-1H-pyrazol-5-ol]]
solubility in water [1]: water-soluble | relative value of the superoxide production amount [2]: suppressed the superoxide production amount in a concentration-dependent manner

CCN1N=C(C)/C(=C/c2c(C)nn(CC)c2O)C1=O [BisEp-C1]
solubility in water [1]: water-soluble | relative value of the superoxide production amount [2]: suppressed the superoxide production amount in a concentration-dependent manner

CCN1N=C(C)CC1=O [EMPO, reference compound]
Residual rate (%) After 1 week ([3]; Pure water): 6.3% | Residual rate (%) After 2 weeks ([3]; Pure water): 1.4% | Residual rate (%) Initial concentration ([3]; Pure water): 100% | Residual rate (%) After 1 week ([3]; pH 7.4-PBS): 0.0% | Residual rate (%) After 2 weeks ([3]; pH 7.4-PBS): 0.0% | Residual rate (%) Initial concentration ([3]; pH 7.4-PBS): 100%

CC1=NN(c2ccccc2)C(=O)C1 [Edaravone, 5-methyl-2-phenyl-2,4-dihydro-3H-pyrazol-3-one, reference compound]
Residual rate (%) After 1 week ([3]; Pure water): 82.8% | Residual rate (%) After 2 weeks ([3]; Pure water): 80.4% | Residual rate (%) Initial concentration ([3]; Pure water): 100% | Residual rate (%) After 1 week ([3]; pH 7.4-PBS): 31.2% | Residual rate (%) After 2 weeks ([3]; pH 7.4-PBS): 0.2% | Residual rate (%) Initial concentration ([3]; pH 7.4-PBS): 100% | relative value of the superoxide production amount [2]: suppressed the superoxide production amount in a concentration-dependent manner | recovery of the fluorescence intensity (cellular activity) (rat neuroid cells B50 [4]; 0, 12.5, 25, 50, or 100 μmol/l, FIG. 3): not recovered | superoxide-eliminating ability after storage [5]: remarkably lowered after storage for 10 days | cytotoxicity (cell viability) (rat neuroid cells B50 [6]): not cytotoxic at any concentration | cytotoxicity of the byproducts after reaction with singlet oxygen (cell viability) (rat neuroid cells B50 [7]): not cytotoxic at any concentration

CC1=NN(c2ccccc2)C(=O)/C1=C\c1c(C)nn(-c2ccccc2)c1O [formula (10), 2,4-dihydro-4-[(5-hydroxy-3-methyl-1-phenyl-1H-pyrazol-4-yl)methylene]-5-methyl-2-phenyl-3H-pyrazol-3-one]
solubility in water [1]: poorly soluble in water

Cc1nn(-c2ccccc2)c(O)c1Cc1c(C)nn(-c2ccccc2)c1O [formula (14), 4,4′-methylenebis[3-methyl-1-phenyl-1H-pyrazol-5-ol]]
solubility in water [1]: poorly soluble in water

[N-]=[N+]=[N-] [sodium azide, reference compound]
relative value of the fluorescence intensity (rat neuroid cells B50 [4]; 4 mmol/l, negative control being 100, RB control 33.17): 80.81
